In PubChem BioAssay (NCI):
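Five compound concentrations were applied to cells in 96-well plates for 48 hours; endpoints were derived by simple linear interpolation of the resulting dose-response curve. The concentration for 50% growth inhibition is given as GI50. TGI: concentration producing complete growth inhibition.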

Experiments:
Assay in all cases: inhibition of tumour cell growth, NCI panel, 48 h
[1] = test system: HCT-15 colon
[2] = test system: OVCAR-4 ovarian
[3] = test system: HL-60(TB) leukemia
[4] = test system: SK-MEL-2 melanoma
[5] = test system: SW-620 colon
[6] = test system: MDA-MB-435
[7] = test system: IGROV1 ovarian
[8] = test system: HCT-116 colon
[9] = test system: K-562 leukemia
[10] = test system: RXF 393 renal
[11] = test system: SK-MEL-5 melanoma
[12] = test system: OVCAR-5 ovarian
[13] = test system: MCF7 breast
[14] = test system: UACC-62 melanoma
[15] = test system: SR leukemia
[16] = test system: M14 melanoma
[17] = test system: A549 NSCLC
[18] = test system: PC-3 prostate
[19] = test system: NCI-H226 lung
[20] = test system: KM12 colon
[21] = test system: HS 578T breast
[22] = test system: MALME-3M melanoma
[23] = test system: BT-549 breast
[24] = test system: SF-268 CNS
[25] = test system: SF-539 CNS
[26] = test system: HOP-62 NSCLC
[27] = test system: UO-31 renal
[28] = test system: ACHN renal
[29] = test system: MDA-MB-468 breast
[30] = test system: OVCAR-8 ovarian
[31] = test system: U251 CNS
[32] = test system: SK-OV-3 ovarian
[33] = test system: HOP-92 NSCLC
[34] = test system: MDA-MB-231 breast
[35] = test system: NCI-H460 lung
[36] = test system: 786-0 renal
[37] = test system: HCC-2998 colon
[38] = test system: SNB-75 CNS
[39] = test system: NCI/ADR-RES ovarian
[40] = test system: NCI-H522 lung
[41] = test system: SN12C renal
[42] = test system: NCI-H23 lung
[43] = test system: A498 renal
[44] = test system: COLO 205 colon
[45] = test system: CCRF-CEM leukemia
[46] = test system: T-47D breast
[47] = test system: TK-10 renal
[48] = test system: OVCAR-3 ovarian
[49] = test system: UACC-257 melanoma
[50] = test system: SF-295 CNS
[51] = test system: MOLT-4 leukemia
[52] = test system: RPMI-8226 leukemia
[53] = test system: DU-145 prostate
[54] = test system: HT29 colon
[55] = test system: SK-MEL-28 melanoma
[56] = test system: CAKI-1 renal
[57] = test system: EKVX NSCLC
[58] = test system: SNB-19 CNS
[59] = test system: LOX IMVI melanoma

O=C(O)CCCCCCCCCCN1C(=O)/C(=C/c2cnc(-c3ccc(Cl)cc3)s2)SC1=S was tested, and the GI50 [1] was 1.71 µM, the TGI [1] was 3.67 µM and the GI50 [2] was 5.56 µM. The TGI [2] was over 100 µM, the GI50 [3] was 3.91 µM and the TGI [3] was over 100 µM. The GI50 [4] was 2.12 µM, the TGI [4] was 5.02 µM and the GI50 [5] was 2.52 µM. The TGI [5] was 7.21 µM, the GI50 [6] was 4.69 µM and the TGI [6] was over 100 µM. The GI50 [7] was 2.89 µM, the TGI [7] was 13.7 µM and the GI50 [8] was 1.75 µM. For the same compound, the TGI [8] was 7.51 µM, the GI50 [9] was 3.71 µM and the TGI [9] was over 100 µM. It also gave a GI50 [10] of 12.1 µM, a TGI [10] of 47.3 µM and a GI50 [11] of 1.86 µM. It also gave a TGI [11] of 4.74 µM, a GI50 [12] of 2.59 µM and a TGI [12] of over 100 µM. The GI50 [13] was 3.73 µM, the TGI [13] was over 100 µM and the GI50 [14] was 1.57 µM. The TGI [14] was 3.29 µM, the GI50 [15] was 0.367 µM and the TGI [15] was 4.8 µM. It also gave a GI50 [16] of 2.1 µM, a TGI [16] of 5.71 µM and a GI50 [17] of 1.01 µM. It also gave a TGI [17] of 4.51 µM, a GI50 [18] of 1.26 µM and a TGI [18] of 4.9 µM. For the same compound, the GI50 [19] was 6.46 µM, the TGI [19] was 57.2 µM and the GI50 [20] was 2.93 µM. For the same compound, the TGI [20] was over 100 µM, the GI50 [21] was 11.7 µM and the TGI [21] was over 100 µM. It also gave a GI50 [22] of 5.92 µM, a TGI [22] of 28.1 µM and a GI50 [23] of 1.95 µM. The TGI [23] was 6.1 µM, the GI50 [24] was 4.99 µM and the TGI [24] was over 100 µM. The GI50 [25] was 3.18 µM, the TGI [25] was 13.2 µM and the GI50 [26] was 3.81 µM. For the same compound, the TGI [26] was 15.9 µM, the GI50 [27] was 3.76 µM and the TGI [27] was 28.2 µM. For the same compound, the GI50 [28] was 2.38 µM, the TGI [28] was 11.7 µM and the GI50 [29] was 2.63 µM. It also gave a TGI [29] of 12 µM, a GI50 [30] of 1.65 µM and a TGI [30] of 5.11 µM. It also gave a GI50 [31] of 2.07 µM, a TGI [31] of 6.06 µM and a GI50 [32] of 3.24 µM. It also gave a TGI [32] of 8.72 µM, a GI50 [33] of 0.292 µM and a TGI [33] of 1.79 µM. For the same compound, the GI50 [34] was 1.65 µM, the TGI [34] was 4.48 µM and the GI50 [35] was 1.37 µM. It also gave a TGI [35] of over 100 µM, a GI50 [36] of 2.64 µM and a TGI [36] of 9.67 µM. For the same compound, the GI50 [37] was 5.03 µM, the TGI [37] was over 100 µM and the GI50 [38] was 15.4 µM. It also gave a TGI [38] of 42.3 µM, a GI50 [39] of 1.69 µM and a TGI [39] of 8.18 µM. The GI50 [40] was 1.68 µM, the TGI [40] was 4.55 µM and the GI50 [41] was 1.39 µM. It also gave a TGI [41] of 2.89 µM, a GI50 [42] of 2.43 µM and a TGI [42] of 8.95 µM. For the same compound, the GI50 [43] was 15.9 µM, the TGI [43] was 34.5 µM and the GI50 [44] was over 100 µM. For the same compound, the TGI [44] was over 100 µM, the GI50 [45] was 3.11 µM and the TGI [45] was over 100 µM. The GI50 [46] was 4.77 µM, the TGI [46] was over 100 µM and the GI50 [47] was 5.48 µM. It also gave a TGI [47] of 16.1 µM, a GI50 [48] of 4.87 µM and a TGI [48] of 51.4 µM. For the same compound, the GI50 [49] was 5.6 µM, the TGI [49] was over 100 µM and the GI50 [50] was 2.29 µM. The TGI [50] was 7.26 µM, the GI50 [51] was 3.39 µM and the TGI [51] was over 100 µM. It also gave a GI50 [52] of 10.3 µM, a TGI [52] of over 100 µM and a GI50 [53] of 1.81 µM. The TGI [53] was 30 µM, the GI50 [54] was over 100 µM and the TGI [54] was over 100 µM. For the same compound, the GI50 [55] was 2.69 µM, the GI50 [56] was 3.31 µM and the TGI [56] was 14.3 µM. For the same compound, the GI50 [57] was 1.84 µM, the TGI [57] was 5.13 µM and the GI50 [58] was 2.86 µM. For the same compound, the TGI [58] was 9.76 µM, the GI50 [59] was 1.69 µM and the TGI [59] was 3.87 µM.
